According to PubChem BioAssay (NCI):
Values joined by “and” are separate entries in the source; they are usually repeats but may differ in a detail not shown here. Identical values can stand only once.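 Grown in 96-well plates, cells were treated for 48 hours with each compound at five concentrations. Insufficient inhibition: endpoint recorded as highest concentration tested. Abbreviation: GI50, concentration required for 50% inhibition of growth. At the TGI there is no net growth.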

tested on: OVCAR-5 ovarian; assay: inhibition of tumour cell growth, NCI panel, 48 h

SMILES | GI50 [µM] | TGI
COc1ccc(CN2C(=O)/C(=C\c3cc(OC)c(OC)c(OC)c3)c3ccccc32)cc1 | 2.71 | 6.48 µM
Cc1ccc(NC(=O)CC2Sc3ccccc3NC2=O)cc1C (stereo unspecified) | – | > 100 µM
N[C@@H](CCC(=O)NCP(=O)(O)O)C(=O)O | – | > 100 µM
CCOP(=O)(OCC)C(F)(F)c1ccc(CC(NC(=O)OC(C)(C)C)C(=O)O)cc1 (stereo unspecified) | – | > 10 µM
NC(=O)C(=Cn1c(=S)[nH]c2ccc([N+](=O)[O-])cc21)C(N)=O | – | > 100 µM
O=C(C1OC1c1ccc(Br)cc1O)C12CC3CC(CC(C3)C1)C2 (stereo unspecified) | – | > 100 µM
O=C1C=C[C@@H](COC2OC(CO)C(O)C(O)C2O)O1 (stereo partly specified) | 28.5 | 50.4 µM and 36.8 µM
c1ccc2c3[nH]c(c2c1)=Nc1ccc(cc1)-c1nc2cc(ccc2o1)N=c1[nH]c(c2ccccc12)=Nc1ccc2nc(oc2c1)-c1ccc(cc1)N=3 | – | > 100 µM
S=C(N/N=C(/c1ccccc1)c1ccccn1)N(Cc1ccccn1)Cc1ccccn1 | – | 3.37 µM
O=C(OCc1ccccc1)N1CCNCCN(C(=O)OCc2ccccc2)CCNCC1 | – | > 100 µM
O=C(Cc1ccc(O)c(O)c1)NCc1c[nH]c2ccccc12 | – | > 100 µM
O=C(NCc1ccccc1)c1n[nH][nH]c1=O | – | > 100 µM

tested on: RXF 393 renal; assay: inhibition of tumour cell growth, NCI panel, 48 h

SMILES | GI50 [µM] | TGI [µM]
COc1ccc2[nH]cc(/C=C(/C)c3ccncc3)c2c1 | 2.74 | 10.3
C=CC1(CC/C(=C\[N+](=O)[O-])c2ccc(OC)c(OC)c2)OCC(C)(C)CO1 | – | 36.3
Cc1cc(C)nc(NS(=O)(=O)c2ccc(NC(=O)c3ccc4nc5ccccc5c(Nc5ccc(S(N)(=O)=O)cc5)c4c3)cc2)n1 | – | > 100
Nc1c(-c2ccc(Cl)c(Cl)c2)c2ccc([N+](=O)[O-])cc2c(=O)n1-c1nc2ccccc2s1 | – | 16.8
CC1(C(=O)O)CCC2(C)CCC3(C)C(=CC(=O)C4C5(C)CCC(O)C(C)(C)C5CCC43C)C2C1 (stereo unspecified) | – | 83
COC(=O)[C@@H](O)[C@](O)(CCC(C)C)C(=O)O[C@@H]1C(OC)=C[C@]23CCCN2CCc2cc4c(cc2[C@H]13)OCO4 | – | 5.41
COC(=O)c1c(C)nc2c1cc(O)c1[nH]c(C)c(C)nc12 | – | > 100
Cn1c2ccc3cc2c(=S)c2cc(ccc21)OCCOCCOCCOCCOCCOCCO3 | – | > 10
COc1cc(S(=O)(=O)Nc2nc(-c3ccc(N4C(=O)C(CC(=O)O)SC4c4cccs4)cc3)cs2)ccc1Cl (stereo unspecified) | – | 32.5
CC1(C)O[C@H]2OC(CO[Si](C)(C)C(C)(C)C)C(N=[N+]=[N-])[C@H]2O1 (stereo partly specified) | – | 32.6
O=[N+]([O-])c1ccc(Cl)cc1N/N=C/c1ccnc2ccccc12 | – | > 100
Oc1[nH]c2ccccc2c1N=Nc1nc(-c2ccc(Br)cc2)cs1 | – | > 100
COc1ccc2cc1Oc1ccc(cc1)C[C@H]1c3cc(c(OC)cc3CCN1C)Oc1c(O)c(OC)cc3c1[C@H](C2)N(C)CC3 | – | 45
C#CCn1c(=O)c2ccccc2n(CC#C)c1=O | – | > 10
CC1CN(C)c2ccccc2N=C1NN (stereo unspecified) | – | 78.6
Cc1ccc(NC(=O)CC2Sc3ccccc3NC2=O)cc1C (stereo unspecified) | – | > 100
NC(=O)C(=Cn1c(=S)[nH]c2ccc([N+](=O)[O-])cc21)C(N)=O | – | > 100
O=C(C1OC1c1ccc(Br)cc1O)C12CC3CC(CC(C3)C1)C2 (stereo unspecified) | – | 72.4
O=C1C=C[C@@H](COC2OC(CO)C(O)C(O)C2O)O1 (stereo partly specified) | 2.72 | 8.82
c1ccc2c3[nH]c(c2c1)=Nc1ccc(cc1)-c1nc2cc(ccc2o1)N=c1[nH]c(c2ccccc12)=Nc1ccc2nc(oc2c1)-c1ccc(cc1)N=3 | – | > 100
S=C(N/N=C(/c1ccccc1)c1ccccn1)N(Cc1ccccn1)Cc1ccccn1 | – | 2.74
O=C(OCc1ccccc1)N1CCNCCN(C(=O)OCc2ccccc2)CCNCC1 | – | > 100
O=C(Cc1ccc(O)c(O)c1)NCc1c[nH]c2ccccc12 | – | > 100
O=C(NCc1ccccc1)c1n[nH][nH]c1=O | – | > 100

tested on: UO-31 renal; assay: inhibition of tumour cell growth, NCI panel, 48 h

SMILES | TGI | GI50 [µM]
COc1cccc(Nc2nc(-c3cccs3)nc3cc(OC)c(OC)cc23)c1 | > 100 µM | –
Nn1c(-c2ccccc2)n[nH]c1=O | > 100 µM | –
COc1ccc2[nH]cc(/C=C(/C)c3ccncc3)c2c1 | 28.4 µM and 96.4 µM | 3.85
C=CC1(CC/C(=C\[N+](=O)[O-])c2ccc(OC)c(OC)c2)OCC(C)(C)CO1 | 31.6 µM | –
Cc1cc(C)nc(NS(=O)(=O)c2ccc(NC(=O)c3ccc4nc5ccccc5c(Nc5ccc(S(N)(=O)=O)cc5)c4c3)cc2)n1 | > 100 µM | –
Nc1c(-c2ccc(Cl)c(Cl)c2)c2ccc([N+](=O)[O-])cc2c(=O)n1-c1nc2ccccc2s1 | 18.1 µM | –
CC1(C(=O)O)CCC2(C)CCC3(C)C(=CC(=O)C4C5(C)CCC(O)C(C)(C)C5CCC43C)C2C1 (stereo unspecified) | 57.1 µM | –
COC(=O)[C@@H](O)[C@](O)(CCC(C)C)C(=O)O[C@@H]1C(OC)=C[C@]23CCCN2CCc2cc4c(cc2[C@H]13)OCO4 | 8.42 µM | –
COC(=O)c1c(C)nc2c1cc(O)c1[nH]c(C)c(C)nc12 | > 100 µM | –
Cn1c2ccc3cc2c(=S)c2cc(ccc21)OCCOCCOCCOCCOCCOCCO3 | > 10 µM | –
COc1cc(S(=O)(=O)Nc2nc(-c3ccc(N4C(=O)C(CC(=O)O)SC4c4cccs4)cc3)cs2)ccc1Cl (stereo unspecified) | 45.2 µM | –
CC(=O)N1C(C(=O)NC2CCCCC2)CSC1c1ccccc1 (stereo unspecified) | > 100 µM | –
CC1(C)O[C@H]2OC(CO[Si](C)(C)C(C)(C)C)C(N=[N+]=[N-])[C@H]2O1 (stereo partly specified) | 32.3 µM | –
O=[N+]([O-])c1ccc(Cl)cc1N/N=C/c1ccnc2ccccc12 | > 100 µM | –
Oc1[nH]c2ccccc2c1N=Nc1nc(-c2ccc(Br)cc2)cs1 | 56.2 µM | –
COc1ccc2cc1Oc1ccc(cc1)C[C@H]1c3cc(c(OC)cc3CCN1C)Oc1c(O)c(OC)cc3c1[C@H](C2)N(C)CC3 | 58.8 µM | –
C#CCn1c(=O)c2ccccc2n(CC#C)c1=O | > 10 µM | –

SMILES | TGI | GI50 [µM]
O=C1CCC2(c3ccc(Cl)cc3)Nc3ccncc3N12 (stereo unspecified) | > 10 µM | –
Oc1ccc(Cc2cc(Cc3ccc(O)cc3)cc(Cc3ccc(O)cc3)c2)cc1 | > 50 µM | –
Nc1ncnc2c1[nH]c(=O)n2-c1ccccc1 | > 100 µM | –
CC1CN(C)c2ccccc2N=C1NN (stereo unspecified) | > 100 µM | –
O=C(c1ccccn1)C1(N2CCCCC2)CCCCC1 | > 100 µM | –
COc1ccc(CN2C(=O)/C(=C\c3cc(OC)c(OC)c(OC)c3)c3ccccc32)cc1 | 2.91 µM | 1.18
Cc1ccc(NC(=O)CC2Sc3ccccc3NC2=O)cc1C (stereo unspecified) | > 100 µM | –
N[C@@H](CCC(=O)NCP(=O)(O)O)C(=O)O | > 100 µM | –
CCOP(=O)(OCC)C(F)(F)c1ccc(CC(NC(=O)OC(C)(C)C)C(=O)O)cc1 (stereo unspecified) | > 10 µM | –
NC(=O)C(=Cn1c(=S)[nH]c2ccc([N+](=O)[O-])cc21)C(N)=O | > 100 µM | –
O=C(C1OC1c1ccc(Br)cc1O)C12CC3CC(CC(C3)C1)C2 (stereo unspecified) | 31.3 µM | –
O=C1C=C[C@@H](COC2OC(CO)C(O)C(O)C2O)O1 (stereo partly specified) | 85 µM | –
c1ccc2c3[nH]c(c2c1)=Nc1ccc(cc1)-c1nc2cc(ccc2o1)N=c1[nH]c(c2ccccc12)=Nc1ccc2nc(oc2c1)-c1ccc(cc1)N=3 | > 100 µM | –
S=C(N/N=C(/c1ccccc1)c1ccccn1)N(Cc1ccccn1)Cc1ccccn1 | 1.65 µM | –
O=C(OCc1ccccc1)N1CCNCCN(C(=O)OCc2ccccc2)CCNCC1 | 38.5 µM | –
O=C(Cc1ccc(O)c(O)c1)NCc1c[nH]c2ccccc12 | > 100 µM | –
O=C(NCc1ccccc1)c1n[nH][nH]c1=O | > 100 µM | –
